Key:
[1] = Selectivity for human adenosine A2A receptor over adenosine A1 receptor
Adenosine receptor A2a [2] = target: Adenosine receptor A2a (Homo sapiens, UniProt P29274); experiment: Displacement of [3H]SCH58261 from human recombinant A2A receptor expressed in HEK293 cells; type: cell-based
[3] = Metabolic stability in human liver microsomes assessed as compound remaining after 30 mins; type: ADME, Microsome; details: read-out: Stability
[4] = Metabolic stability in rat liver microsomes assessed as compound remaining after 30 mins; type: ADME, Microsome; details: read-out: Stability
Adenosine receptor A2a [5] = target: Adenosine receptor A2a (Rattus norvegicus, UniProt P30543); experiment: Antagonist activity at rat A2A receptor by cAMP functional assay
Chain of Adenosine receptor A2a (Rattus norvegicus, UniProt P30543) (P30543 whole entry): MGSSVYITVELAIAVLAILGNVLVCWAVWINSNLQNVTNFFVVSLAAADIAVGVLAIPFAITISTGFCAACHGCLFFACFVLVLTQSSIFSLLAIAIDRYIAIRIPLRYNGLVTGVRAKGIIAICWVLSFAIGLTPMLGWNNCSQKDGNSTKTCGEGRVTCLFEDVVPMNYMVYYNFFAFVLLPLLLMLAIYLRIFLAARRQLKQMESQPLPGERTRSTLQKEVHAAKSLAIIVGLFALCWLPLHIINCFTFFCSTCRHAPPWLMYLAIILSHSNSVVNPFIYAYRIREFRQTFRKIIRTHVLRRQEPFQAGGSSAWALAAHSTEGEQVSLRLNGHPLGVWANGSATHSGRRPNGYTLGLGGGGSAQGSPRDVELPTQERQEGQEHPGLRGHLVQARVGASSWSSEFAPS

[6] = Plasma concentration in rat at 30 mg/kg, po after 1 hr; type: ADME, organism-based; set-up: dose 30 mg/kg, route oral
[7] = Ratio of drug level in brain to plasma of rat at 30 mg/kg, po after 4 hrs; type: ADME, organism-based; set-up: dose 30 mg/kg, route oral; details: read-out: BPR
[8] = Drug level in rat brain at 30 mg/kg, po after 1 hr; type: ADME, organism-based; set-up: dose 30 mg/kg, route oral; details: read-out: Drug uptake
[9] = Plasma concentration in rat at 30 mg/kg, po after 4 hrs; type: ADME, organism-based; set-up: dose 30 mg/kg, route oral
[10] = Drug level in rat brain at 30 mg/kg, po after 4 hrs; type: ADME, organism-based; set-up: dose 30 mg/kg, route oral; details: read-out: Drug uptake
[11] = Ratio of drug level in brain to plasma of rat at 30 mg/kg, po after 1 hr; type: ADME, organism-based; set-up: dose 30 mg/kg, route oral; details: read-out: BPR

Chain of Adenosine receptor A2a (Homo sapiens, UniProt P29274) (P29274 whole entry): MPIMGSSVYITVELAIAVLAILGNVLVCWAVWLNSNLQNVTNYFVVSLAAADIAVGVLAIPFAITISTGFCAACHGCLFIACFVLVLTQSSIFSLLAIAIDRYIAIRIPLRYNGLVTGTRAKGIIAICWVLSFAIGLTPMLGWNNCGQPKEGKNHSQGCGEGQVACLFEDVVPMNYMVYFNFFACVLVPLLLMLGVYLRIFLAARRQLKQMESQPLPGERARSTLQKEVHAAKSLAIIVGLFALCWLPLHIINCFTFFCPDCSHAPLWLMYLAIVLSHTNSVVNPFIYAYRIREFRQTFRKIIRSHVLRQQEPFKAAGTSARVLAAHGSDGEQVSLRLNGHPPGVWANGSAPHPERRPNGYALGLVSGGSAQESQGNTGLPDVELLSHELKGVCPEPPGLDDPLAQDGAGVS

SMILES	Ratio [1]	Ki (Adenosine receptor A2a [2]) [nM]	further results
N#Cc1cccc(C(=O)Nc2nc3cc(C(=O)N4CCCCC4)cnc3n2C2CCOCC2)c1	10	179	–
COCCCn1c(NC(=O)c2cccc(Cl)c2)nc2cc(C(=O)NCc3cccc(OC)c3)ccc21	–	439	–
COc1cccc(-n2c(NC(=O)c3cccc(C#N)c3)nc3cc(C(=O)N4CCCCC4)cnc32)c1	2	325	–
COCCCn1c(NC(=O)c2ccccc2Cl)nc2cc(C(=O)NCc3cccc(OC)c3)ccc21	–	4710	–
COCCCn1c(NC(=O)c2cccc(C(F)(F)F)c2)nc2cc(C(=O)NCc3cccc(OC)c3)ccc21	–	> 10000	–
COCCCn1c(NC(=O)c2cccc(C#N)c2)nc2ccc(C(=O)N3CCCCC3)cc21	131	17	remaining at 0.5 h [3]: 19%; remaining at 0.5 h [4]: 12%; Ki (Adenosine receptor A2a [5]): 85 nM
COCCCn1c(NC(=O)c2cccc(F)c2)nc2cc(C(=O)NCc3cccc(OC)c3)ccc21	–	210	–
COCCCn1c(N)nc2cc(C(=O)NCc3cccc(OC)c3)ccc21	–	6770	–
N#Cc1cccc(C(=O)Nc2nc3cc(C(=O)N4CCCCC4)cnc3n2Cc2ccncc2)c1	39	39	–
COc1ccc(Cn2c(NC(=O)c3cccc(C#N)c3)nc3cc(C(=O)N4CCCCC4)cnc32)cc1	7	1220	–
COCCCn1c(NC(=O)c2cccc(OC)c2)nc2cc(C(=O)NCc3cccc(OC)c3)ccc21	–	2380	–
COCCCn1c(NC(=O)c2ccc(C#N)cc2)nc2cc(C(=O)NCc3cccc(OC)c3)ccc21	–	1670	–
N#Cc1cccc(C(=O)Nc2nc3cc(C(=O)N4CCCCC4)cnc3n2Cc2cccnc2)c1	4	233	–
Cn1c(NC(=O)c2cccc(C#N)c2)nc2cc(C(=O)N3CCCCC3)cnc21	22	147	–
N#Cc1cccc(C(=O)Nc2nc3cc(C(=O)N4CCCCC4)cnc3n2Cc2ccc(F)cc2)c1	3	2590	–

The next lines start with results.

Ratio [1]	Ki (Adenosine receptor A2a [2]) [nM]	SMILES	further results
–	46	COCCCn1c(NC(=O)c2cccc(C#N)c2)nc2cc(C(=O)NCc3cccc(OC)c3)ccc21	–
–	123	COCCCn1c(NC(=O)c2cccc(C#N)c2)nc2cc(C(=O)N(C)C)cnc21	–
–	48	CCCCNC(=O)c1ccc2c(c1)nc(NC(=O)c1cccc(C#N)c1)n2CCCOC	remaining at 0.5 h [3]: 27%; remaining at 0.5 h [4]: 38%
–	2430	COCCCn1c(NC(=O)c2cccc(C#N)c2)nc2cc(C(N)=O)cnc21	–
–	13	COCCCn1c(NC(=O)c2cccc(C#N)c2)nc2cc(C(=O)N(C)C(C)C)cnc21	Ki (Adenosine receptor A2a [5]): 12 nM
10	51	N#Cc1cccc(C(=O)Nc2nc3cc(C(=O)N4CCCCC4)cnc3n2CCCO)c1	–
1.8	3300	CCOCCn1c(NC(=O)c2cccc(C#N)c2)nc2cc(C(=O)N3CCOCC3)cnc21	–
3	904	CCCCCn1c(NC(=O)c2cccc(C#N)c2)nc2cc(C(=O)N3CCCCC3)cnc21	–
–	40	CCCCNC(=O)c1cnc2c(c1)nc(NC(=O)c1cccc(C#N)c1)n2CCCOC	remaining at 0.5 h [3]: 95%; remaining at 0.5 h [4]: 73%
9	1100	CCOCCCn1c(NC(=O)c2cccc(C#N)c2)nc2cc(C(=O)N3CCOCC3)cnc21	–
–	> 10000	CC(C)OCCCn1c(NC(=O)c2cccc(C#N)c2)nc2cc(C(=O)N3CCOCC3)cnc21	–
–	25	CCN(C)C(=O)c1cnc2c(c1)nc(NC(=O)c1cccc(C#N)c1)n2CCCOC	concentration at 1 h [6]: 4360 ng/mL; Kp at 4 h [7]: 0.09; concentration at 1 h [8]: 480 ng/g; concentration at 4 h [9]: 2290 ng/mL; concentration at 4 h [10]: 210 ng/g; Ki (Adenosine receptor A2a [5]): 24 nM; Kp at 1 h [11]: 0.11
80	12	CCN(C)C(=O)c1ccc2nc(NC(=O)c3cccc(C#N)c3)n(CCCOC)c2n1	concentration at 1 h [6]: 4630 ng/mL; Kp at 4 h [7]: 0.19; remaining at 0.5 h [3]: 52%; remaining at 0.5 h [4]: 52%; concentration at 1 h [8]: 1050 ng/g; concentration at 4 h [9]: 2380 ng/mL; concentration at 4 h [10]: 450 ng/g; Ki (Adenosine receptor A2a [5]): 23 nM; Kp at 1 h [11]: 0.23
61	92	COCCCn1c(NC(=O)c2cccc(C#N)c2)nc2cc(C(=O)N3CCOCC3)cnc21	–
> 46	37	CC(=O)NCCn1c(NC(=O)c2cccc(C#N)c2)nc2cc(C(=O)N3CCCCC3)cnc21	–
–	9.6	COCCCn1c(NC(=O)c2cccc(C#N)c2)nc2cc(C(=O)N3CCCCC3)cnc21	remaining at 0.5 h [3]: 90%; remaining at 0.5 h [4]: 36%
–	48	COCCCn1c(NC(=O)c2cccc(C#N)c2)nc2cc(C(=O)N3CCCCC3)ccc21	remaining at 0.5 h [3]: 67%; remaining at 0.5 h [4]: 16%
183	3.1	CCN(CC)C(=O)c1ccc2nc(NC(=O)c3cccc(C#N)c3)n(CCCOC)c2c1	remaining at 0.5 h [3]: 36%; remaining at 0.5 h [4]: 19%; Ki (Adenosine receptor A2a [5]): 16 nM
88	2.5	COCCCn1c(NC(=O)c2cccc(C#N)c2)nc2ccc(C(=O)N(C)C(C)C)nc21	remaining at 0.5 h [3]: 25%; remaining at 0.5 h [4]: 14%; Ki (Adenosine receptor A2a [5]): 4.3 nM
–	16	CCN(CC)C(=O)c1cnc2c(c1)nc(NC(=O)c1cccc(C#N)c1)n2CCCOC	Ki (Adenosine receptor A2a [5]): 59 nM
